Common to all, as to assay: inhibition of tumour cell growth, NCI panel, 48 h
In test [1] the test system is CAKI-1 renal.
The test system of test [2] is TK-10 renal.
The subject of test [3] is SK-MEL-2 melanoma.
In test [4] the test system is SNB-75 CNS.
The test system of test [5] is HCT-15 colon.
In test [6] the test system is MDA-N.
Test [7] relates to SNB-19 CNS.
Test [8] has as its system SK-MEL-28 melanoma.
The subject of test [9] is BT-549 breast.

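Cultured in 96-well plates, cells were exposed to test compound for 48 hours across five concentrations. The concentration for 50% growth inhibition is given as GI50. The concentration for full growth arrest is given as TGI.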

Here are results for twelve compounds from PubChem BioAssay (NCI).

Consider `COc1ccc(-c2coc3cc(O)ccc3c2=O)cc1`, for which the TGI in [1], in test [2], in [3], in test [4], in test [5] and in test [6] was more than 100 µM throughout. Further, the TGI in [7] and in test [8] was more than 100 µM throughout.
For the compound `COc1cc2c(NCCCCCO)ncnc2c(OC)c1OC`, the TGI in [1], in test [2], in test [3], in [4], in test [5] and in [6] was more than 100 µM throughout. In addition, the TGI in test [9], in test [7] and in test [8] was more than 100 µM each time.
Consider `O=C(O)CCCCn1ccc(=O)[nH]c1=O`, for which the TGI in [1], in test [2], in test [3], in test [4], in [5] and in test [6] was more than 100 µM in each case. For the same compound, the TGI in test [9], in [7] and in [8] was more than 100 µM each time.
With `ClCCCSSCCCCl`, the TGI in [1] is more than 100 µM; in test [2], more than 100 µM; in test [3], more than 100 µM; in test [4], more than 100 µM; in test [5], 57.7 µM; in [6], 49.7 µM. In addition, the TGI is 57.9 µM in test [9], more than 100 µM in test [7] and more than 100 µM in test [8].
For the compound `COC(=O)C12CCC(C)(C)CC1C1=CCC3C4(C)CC(O)C(O)C(C)(C(=O)OC)C4CCC3(C)C1(CO)CC2` (stereo not given), the TGI in test [1] came out at 27.8 µM; in test [2], 33.7 µM; in [3], 28.2 µM; in test [4], 25.3 µM; in [5], 29.1 µM; in test [6], 26.3 µM. The figures for the TGI in test [9] and in [7] were 28.8 µM and 37 µM, respectively.
As for `COC(=O)Oc1nn(C(=O)OC)c(=O)c2ccccc12`, the TGI in test [1], in test [2], in test [3], in test [4], in test [5] and in test [6] was more than 100 µM in each case. In addition, the TGI in test [9], in test [7] and in test [8] was more than 100 µM each time.
On to `Fc1cc(F)c(F)c(S)c1F`, for which the TGI in test [1], in test [2], in test [3], in test [4], in [5] and in [6] was more than 100 µM in each case. In addition, the TGI is 52 µM in test [9], more than 100 µM in [7] and more than 100 µM in test [8].
Take `N#CC(C#N)=CNCCN1CCN(C=C(C#N)C#N)CC1`: the TGI in test [1], in [2], in [3], in test [5], in test [6] and in test [9] was more than 100 µM in each case. The TGI in [7] and in test [8] was more than 100 µM each time.
Take `COC(=O)C1=COC2OC3C(C(C)O)C(=O)OC34C=CC1C24` (stereo not given): the TGI in test [1], in test [2], in test [3], in test [4], in test [5] and in [6] was more than 100 µM in each case. Also, the TGI in [9], in [7] and in test [8] was more than 100 µM throughout.
Turning to `O=Cc1cccc2ccc3ccccc3c12`, the TGI in test [1] was 46.5 µM; in test [2] it was 40.2 µM; in test [3], 38 µM; in test [4], 43.6 µM; in test [5], more than 100 µM; in test [6] it was 73.2 µM. The TGI in test [9] came to 96.9 µM; in test [7], 65.5 µM.
`N#CC(C#N)=NNc1ccc2cn[nH]c2c1`: the TGI was 96.4 µM in test [1]; 76.1 µM in test [2]; more than 100 µM in test [3]; more than 100 µM in test [5]; more than 100 µM in test [6]; more than 100 µM in [9]. For the same compound, the TGI in [7] and in test [8] was more than 100 µM each time.
Regarding `COc1cc(-c2cc3ncccc3c3nc(OCCN(C)C)c4cccnc4c23)cc(OC)c1OC`, the GI50 is 468 nM in [1]; 294 nM in test [2]; 744 nM in [3]; 414 nM in [4]; 502 nM in test [5]; 665 nM in test [9]. Further, the figures for the GI50 in test [7] and in test [8] were 576 nM and 639 nM, respectively. For the same compound, the TGI in test [1] turned out to be 3.14 µM; in test [2], 1.39 µM; in [3], 3.71 µM; in test [4] it was 2.2 µM; in [5] it was 23.4 µM; in [9] it was 3.19 µM. Further, the TGI in [7] turned out to be 29.5 µM; in [8], 2.42 µM.
